Non-standard residues stand in square brackets, D forms with d. No end group written: not given here. T(Sa) = sialic acid threonine lactam (threonine bearing sialic acid, its amine closed onto the sugar)
Each compound was assayed on Serum induced Myocytes proteins (assay: Solid phase screening of Library 5 with labeled myocyte protein). Details: not given.
Format: binding, neonatal Wistar rats

| Compound | Identified Protein(s) |
| --- | --- |
| CC(=O)N(C[C@@H]1CN(Cc2ccc(C(=O)O)cc2)[C@H]2c3ccccc3C(=O)N12)C1(C(=O)O)CCCC1 [HY6] | Myosin chain (Q63358); NF-kappa B-repressing factor (Transcription factor ITBA4 protein) (O15226). |
| CC(=O)N(C[C@@H]1CN(C(C)C)[C@H]2c3ccccc3C(=O)N12)[C@H]1CCCCN(CC(=O)O)C1=O [HY7] | Zinc finger protein 339 (Q9BRPO); DNA repair protein RAD52 homolog (P43351). |
| CCC(C)C(=O)N(C[C@@H]1CN(C(C)C)[C@H]2c3ccccc3C(=O)N12)[C@H]1CCCCN(CC(=O)O)C1=O (some centres unmarked) [HY8] | Zinc finger protein 339 (Q9BRPO); DNA repair protein RAD52 homolog (P43351). |
| CC(C)N1CCCC(CN[C@H]2CCCCN(CC(=O)O)C2=O)N2C(=O)c3ccccc3[C@H]12 (some centres unmarked) [HY9] | Zinc finger protein 339 (Q9BRPO); DNA repair protein RAD52 homolog (P43351). |

What follows are compounds tested on E. coli membrane proteins (assay: Solid phase screening of Library 2 with labeled E. coli membrane proteins; bound proteins identified by tryptic digest and peptide mass fingerprinting). Details: Library 2 ligand on bead.
Format: binding, Escherichia coli DH 5α-136
Method: A 400 mL culture of Escherichia coli DH 5α-136 (Carlsberg Research Center Collection) was prepared according to the procedures described in Hanahan, 1985, In: DNA Cloning, Vol 1, Glover, D., ed., IRL Press Ltd, pp. 109-135. […]. The media containing extracellular protein was retained and the pellet washed once with PBS, pH 7.6 (cellular weight=2.22g).
Isolation of E. coli membrane proteins was achieved through modification of published literature procedures: Auer, et al., 2001, Biochemistry, 40:6628-6635, and Molloy, et al., 2000, Eur. J. Biochem. 267:2871-2881. After incubation of E. coli cells for 2 days, washed cells were scraped from plates and centrifuged as described above for Example 10. The cell pellet (approximately 1 g) was suspended in 50 mM Tris HCl, pH 7.5 and pressed (2×) in a French Press at 1500 Psi. The resulting suspension was centrifuged at 2500×g for 10 minutes. The ice cold supernatant was diluted with 2.5 ml of ice-cold 0.1 M sodium carbonate buffer 11 and the solution stirred on ice for 1 hour. Ultracentrifugation was then carried out at 115, 000×g for 1 to 1.5 hours at 4° C., yielding Pellet 1 and Supernatant 1. The membrane pellet 1 was resuspended in 50 mM Tris HCl, pH 7.5 and the pellet was recollected after centrifugation for an additional 20 minutes at 115,000×g, yielding Pellet 2 and supernatant 2. Pellet 2 was solubilized in 50 mM Tris HCl, pH 7.5 containing 10 MM imidazole, 0.5 mM PMSF, 20% glycerol, and 1% Dodecyl Maltoside (DM) or 33 mM Octyl Glucoside (OG) for 30 mninutes at 4° C. The suspension was then centrifuged for 10,000 g for 30 minutes. The pellet and supernatant obtained were labeled Pellet 3 and supernatant 3.
The protein was labeled with amino reactive succinylanthranilate dye (blue) DDM (0.49 mg dye) and OG (0.03 mg dye) according to the same protocol used in the extracellular labeling described above for Example 12. The labeling stopping reaction (hydroxylamine hydrochloride addition) was not used in this case, to avoid dilution of the protein. The mixture was dialyzed overnight against 10 mM PBS buffer, pH 6.8 containing 0.01 MM ZnCl2, 0.01 mM CaCl2, 0.01 mM MnCl2, and 0.01 mM MnSO4, against a three time buffer change.
The ligand library was then washed, and E. coli labeled membrane protein, prepared as described above for Example 13, was added (0.1 ml). The ligand library and protein mixture was incubated overnight at room temperature.
(§1) Ligands can be completely or partially identified by MALDI_TOF-MS whether or not the library is synthesized by ladder synthesis. […] The ligand is cleaved from the resin bead depending on the type of linker used. […] Peptide fragments (ladder synthesis) or single compounds were extracted from the bead with 0.5 AL CH3CN, then 0.5 FL 70% CH3CN/H2O. […] In the case of the acid labile Rink linker (Library 7), the compound was released from the bead by treatment with 95% TFA or 30 min. The TFA solution was evaporated and the cleaved compounds were extracted in 2 μL 70% acetonitrile+0.1% TFA. This mixture was then transferred to a stainless steel disc to which 0.4 μL of CHC matrix+1.0% TFA was added. An additional 0.4 μL of CHC matrix+1.0% TFA was added to complete sample application.
A typical analysis employed 100-300 laser shots. […] A typical analysis employed 200-300 laser shots. The possible identity of the ligand was determined (Narrowed down) by comparing the recorded mass of the ligand with the masses of all possible compounds formed in the library. […]

| Compound | Identified Protein(s) |
| --- | --- |
| T(Sa)-F-G-L-M | (M). |
| T(Sa)-F-V-W-H | (P). |
| T(Sa)-H-I-G-Y | 16129807/15831818) (LA, M) |
| T(Sa)-H-W-H-L ([T(Sa)]HWHL) | (NaDPH) (gi 2121143). |
| T(Sa)-H-W-V-V | (M). |

These compounds were tested on normal/healthy myocyte proteins (assay: Solid phase screening of small molecule biaryl Library 7 with labeled myocyte proteins). Details: Normal Myocytes.
Format: binding, neonatal Wistar rats
Method: (§2) Myocytes were prepared from 1 to 5 day old neonatal Wistar rats (University of Copenhagen) according to literature procedure described in Busk et al., 2002, Cardiovasc. Res., 56: 64-75 and plated into eight P10 culture plates at 6 million cells/plate.
In another case, fluorescent dye Cyanine 3 (Cy 3) (Molecular Probes) was used to label the healthy/basal cells while Cyanine 2 (Cy 2) (Molecular Probes) was used to label the PE-treated cells. The labeling procedures were carried out according to the manufacturer's protocol. The protein solutions (0.35 mL, 100 μg for PE cells and 0.41 mL, 100 μg for basal cells) were dialyzed against a solution of 10 mM phosphate buffer, 0.15 M NaCl, pH 7.5 and then 1 M NaHCO3 (0.03-0.04 mL) was added to obtain a final pH between 8.0-9.0. For efficient labeling, […] fluor (5 μL solution was prepared by addition of […] of reconstituted fluorophore solution [1 nmol μL] and 3 μL of dry DMF) was used to label 50 μg of protein. The fluorophore and the protein solution are mixed thoroughly by vortexing. The samples are then centrifuged briefly in a microfuge and left on ice for 30 min in the dark. To stop the reaction, 10 mM lysine (1 μL) was added to the samples and the samples were mixed by vortexing and centrifuged briefly in a microfuge. The samples were left on ice for 10 min in the dark. The labeled protein solutions were dialyzed extensively against 10 mM phosphate buffer, 0.15 M NaCl, pH 7.5, to remove excess dye. Labeled samples were stored for at −70° C. in the dark until further use.
Alternatively, the fluorescent ligand library beads containing bound protein obtained as described in Examples 47, 48, 49 and 51 were sorted using a COPAS (250) NF Bead Sorter (Union Biometrica, Somerville, Mass.) equipped with a dual detector. Both the cyanine dyes used in the labeling procedure, namely Cy 2 (emission wavelength—510 nm) and Cy 3 (emission wavelength—570 nm) were simultaneously excited at […] The bead selection window was then set-up such that all beads containing significant green fluorescence and no red flourescence were isolated. The unselected beads were then resorted to obtain beads containing red fluorescence (proteins from basal cells). The selected red and green fluorescent beads were then sorted into brightly and less brightly fluorescent beads, to give an indication of either the strength of binding of the ligand to a particular protein or the amount of protein present in the sample binding to the ligand.
as §1
A typical analysis employed 100-300 laser shots. […] The possible identity of the ligand was determined (Narrowed down) by comparing the recorded mass of the ligand with the masses of all possible compounds formed in the library. […]

| Compound | Identified Protein(s) |
| --- | --- |
| COc1ccc(Br)c(OC)c1C(=O)N[C@@H](Cc1c[nH]c2ccccc12)C(=O)O | Cutochrome P450 2C31 (CYPIIC31) (CPCV_CAPAE,Q29478); Fatty acid-binding protein, (FABPI, P0293); Similar to the alpha subunit of protein kinase CK2 (gi 28527943). |
| O=C(O)CC(NC(=O)c1ccc(-c2ccco2)o1)c1ccc(-c2ccccc2)cc1 (centres unmarked) | Thyroid receptor interacting protein 11 (TRIP- 11,Q15643); Unnamed protein product (gi 26338976). |
| O=C(NC1(C(=O)O)CCc2ccccc2C1)c1cccc(Br)n1 (centres unmarked) | Gap junction beta-5 protein (Connexin 31.1), (Q02739); Hypothetical protein XP1'288677 )gi 208598980). |
| COc1ccc(Br)c(OC)c1C(=O)N1CCC(C(=O)O)(c2ccccc2)CC1 [drawing 202] | Centaurin gamma (3) (Q96P47); Poly [ADP-ribose] poly- merase-1 (PARP-1) (ADPRT) (NAD(+) ADP- ribosyltransferase-1) (Poly[ADP-ribose] synthease-1) (P09874); Aortic preferentially expressed protein 1 (APEG-1) Aortic preferentially expressed protein 1 (APG1_RAT, Q63638). |
| COc1ccc(Br)c(OC)c1C(=O)N1CCC(C(=O)O)(c2ccccc2)CC1 [drawing 209] | Cutochrome P450 2C31 (CYPIIC31) (CPCV_CAPAE,Q29478); Fatty acid-binding protein, (FABPI, P0293); Similar to the alpha subunit of protein kinase CK2 (gi 28527943). |

Each compound was assayed on PE-induced myocyte protein (assay: Solid phase screening of Library 6 with unlabeled myocyte proteins; silver staining, on-bead tryptic digest). Details: PE-Treated Myocytes.
Format: binding, neonatal Wistar rats
Method: as §2
Isolated proteins that bound to specific ligands were identified using peptide mass fingerprinting. Mass spectra were recorded on a Bruker Reflex m MALDI time-of-flight mass spectrometer (Bruker-Daltonics, Bremen, Germany) operated in the positive reflectron mode using delayed extraction. Measurements were performed using the following parameters: Power 83-84 V; lens 7.300. The sum of 200-300 shots was used for each spectrum.
The spectra were calibrated using bradykinin peptide. In some cases, internal mass calibration was performed using a porcine trypsin autolysis product Peptide masses were searched against peptide mass maps in the National Center for Biotechnology Information (NCBI) database using the following search engines found on the world wide web (www.) for each of: • MS-FIT (prospector.ucsf.edu/ucsfhtml/msfit.htm), • Profound (129.85.19.192/profound_biniWebProFound.exe), and • MASCOT (matrixscience.com).
A search was performed using the NCBI bacterial (E. coli) database and the mammalian databases for the isolated proteins from the E. coli and myocyte samples, respectively, and the Swiss Prot mammalian databases and the Swiss Prot viral databases were searched to identify the porcine macrophage proteins and proteins, respectively. A molecular mass range was estimated from 0-250 K Da, allowing a mass accuracy that varied from 0.1 Da (some cases 0.3 Da) for each peptide mass. A large pI range from 0-14 or 0-12 was considered for each search. If no proteins matched, the mass window was extended. Partial enzyme cleavages allowing for two missed cleavage sites and modification of cysteine by alkylation were considered in the search approaches. A protein was considered identified if the matched peptides covered at least 30% of the complete sequence. A match of less than 30% was considered in some cases, if prominent peaks were obtained. Usually, four or more peptides were used for identification. In some instances, hypothetical proteins or gene products, such as biochemical material, either RNA or protein, calculated from the expected expression of a gene and to which a function may be assigned based on sequence homology, were identified.
Protein was extracted from myocytes prepared as described above for Example 9, using a new procedure (to preserve the activity of metalloproteases) modified from existing protocols, primarily: Amott, et al., 1998, Anal. Biochem. 258: 1-18. The media was removed from plates and cells were washed with ice cold phosphate buffer (5 ml, 10 mM, pH 7.5, supplemented with 0.15 M NaCl,) to remove traces of media components. The adhered cells were treated for 10 minutes with ice cold phosphate buffer (2 mL, 10 mM, pH 7.5, augmented with 0.15 M NaCl, […] E-64, 10 μg/mL Leupeptin, and 10 μg/mL Pepstatin A). The cells were scraped off the plates and then lysed (on ice) in a sonicator (2×) using 10 seconds off/110 seconds on cycles.
The resulting suspension was augmented with CHAPS (1% w/v), KCl (50 mM), NaCl (0.5 M), ZnCl2 (0.1 mM), DTT (5 mM), and urea (2 M). After 10-15 minutes on ice, the solution was centrifuged for 10 minutes at 15,000 rpm at 4° C. The supernatant was removed and protein content quantified using the NanoOrange Protein test (Molecular Probes, Eugene, Oreg.): Total protein recovered: 195 μg for PE-induced cells and 200 μg for basal cells.
The protein solutions were dialyzed extensively against 20 mM MES (2-[N-Morpholino]ethanesulfonic acid) buffer pH 6.0, supplemented with 0.15 M NaCl and 1 mM ZnCl2 to remove excess detergent and urea. […]

| Compound | Identified Protein(s) |
| --- | --- |
| CC(C)C(NC(CCCCN)C(=O)NCC(=O)O)C(C)C (centres unmarked) | Glycogen ssynthase kinase-3 beta factor (AQ9WV60). |
| CCOC(=O)C(CCc1ccccc1)NC(CCCCN)C(=O)N1CCC[C@H]1C(=O)O (some centres unmarked) [drawing 175] | Angiotensin converting enzyme (P22967); U2 nuclear ribonucleoprotein auxiliary factor (gi 2842676). |
| CCCCCCNC(=O)C(CCCCN)NC(C(C)C)C(C)C (centres unmarked) [drawing 179] | Heat Shock protein 70 kDa protein 12A (Q8KOU4). |

From US20060257875A1, “Affinity screening using "one-bead-one-compound" libraries” (Carlsberg A/S, priority 2003, published 2006)
